According to publication PMC11527646, “Pharmacological blockade of the mast cell MRGPRX2 receptor supports investigation of its relevance in skin disorders” (Frontiers in Immunology, 2024):
Like-named read-outs stand apart in the source and are kept apart here.

Experiments:
Type in all cases: cell-based
MRGPRX2 [1] = biological target: T1, MRGPRX2 (Homo sapiens, UniProt Q96LB1); assay: Ca2+ mobilization assay (FLIPR TETRA) in HEK293-MRGPRX2/Gα15 cells; parameters: expressed in transfected cells; details: for EC50: agonist mode, highest concentration tested 30 μM, read-out: Activation of Ca2+ Mobilization EC50
T1 sequence (Q96LB1 1-330): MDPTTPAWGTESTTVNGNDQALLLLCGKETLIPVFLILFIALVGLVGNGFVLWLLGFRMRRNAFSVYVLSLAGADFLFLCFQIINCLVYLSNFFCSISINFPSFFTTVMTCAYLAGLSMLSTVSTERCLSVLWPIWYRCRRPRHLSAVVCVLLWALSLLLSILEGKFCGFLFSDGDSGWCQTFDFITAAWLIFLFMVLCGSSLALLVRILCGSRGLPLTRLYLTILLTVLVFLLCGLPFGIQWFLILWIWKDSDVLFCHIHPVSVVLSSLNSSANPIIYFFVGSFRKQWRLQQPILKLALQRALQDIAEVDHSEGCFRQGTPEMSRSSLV
Experimental: A Ca^2+ mobilization assay was used to screen for small-molecule compounds with agonist or antagonist activity against human MRGPRX2 using HEK293-MRGPRX2/Gα15 cells. Two million small-molecule compounds in GSK collection were screened at single concentration of 10 μM on FLIPR^TETRA (Molecular Devices) instruments in dual detection mode for both activation and inhibition activities. Cortistatin 14 at approximately EC80 concentration was used as the activation ligand for the inhibition phase of the high-throughput screening. Compounds of interest were followed up and characterized in concentration response curves to determine their mode of activity, potency, and selectivity.
Figure 1 Identification of two structurally distinct MRGPRX2 antagonists: Compound (A) and Compound (B). Calcium mobilization assays were performed in FLIPR^TETRA (Molecular Devices) with two novel MRGPRX2 antagonists using HEK293 cells overexpressing MRGPRX2 and Gα15 proteins. […] Dose-dependent inhibition (A) of Cortistatin 14–mediated MRGPRX2 activation was measured, and antagonist potencies (B) are presented as mean ± SEM of 66 or 22 independent experiments for Compound A and Compound B, respectively.

A2A receptor (ADORA2A) = biological target: T2, A2A receptor (ADORA2A) (Homo sapiens, UniProt P29274); assay: GPCR selectivity cellular assay; details: Agonism; read-out: Agonist Activity (EC50)
T2 construct: expressed in transfected cells
T2 sequence (P29274 whole entry): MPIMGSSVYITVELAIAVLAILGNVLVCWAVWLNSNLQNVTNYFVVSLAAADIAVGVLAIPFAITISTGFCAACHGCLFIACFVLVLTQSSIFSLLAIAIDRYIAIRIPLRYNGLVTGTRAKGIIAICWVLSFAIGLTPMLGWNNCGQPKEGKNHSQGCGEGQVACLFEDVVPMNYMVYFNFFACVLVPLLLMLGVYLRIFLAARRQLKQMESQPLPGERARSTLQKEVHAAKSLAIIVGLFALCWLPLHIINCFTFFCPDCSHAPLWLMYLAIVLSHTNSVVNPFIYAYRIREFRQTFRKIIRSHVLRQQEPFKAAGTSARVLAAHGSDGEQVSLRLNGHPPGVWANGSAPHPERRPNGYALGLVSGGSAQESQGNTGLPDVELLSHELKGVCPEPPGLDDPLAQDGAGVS

MRGPRX2 [2] = biological target: T1, MRGPRX2; assay: Human ex vivo skin microdialysis, Substance P-stimulated histamine release; details: Substance P 50 μM; three donors
Experimental: Microdialysis probes with a 3,000-kDa molecular weight cutoff (EP Medical, Copenhagen, Denmark) were primed for 1 h using a basal perfusate consisting of 0.1% human serum albumin in piperazine-N,N′-bis(2-ethanesulfonic acid) (PIPES) buffer to minimize non-specific adsorption to probe components.
Skin specimens measuring approximately 4 cm × 14 cm were excised from the parent skin sample, and subcutaneous fat was removed mechanically. The skin specimens were fixated on Styrofoam and guide cannulas (21G) were inserted intradermally at least 1 cm apart and ≥ 1 cm from the edge of the skin specimen. Ten probes were introduced into each skin specimen by means of the guide cannulas with an intradermal probe span of 20 mm. Probes were perfused at a flow rate of 3.0 μL/min (used throughout the experiment) for 30 min using basal perfusate in order to remove any unspecific histamine release caused by insertion trauma.
Next, the dialysate was collected for 10 min to assess basal skin histamine levels (“basal”). The probes were then switched to perfusion with a perfusate containing antagonists at different concentrations for 60 min to pre-treat the skin specimens and evaluate potential off-target effects, which could present as histamine release caused by antagonist itself (“pre-treatment”). […] Histamine in the dialysates was quantified as described above. […]

mouse MrgB2 = biological target: T3, mouse MrgB2 (Mus musculus, UniProt Q3KNA1); assay: Calcium mobilization in BacMam-transduced U2OS cells
T3 construct: expressed in transfected cells; host or cells: U2OS transduced with BacMam virus
T3 sequence (Q3KNA1 whole entry): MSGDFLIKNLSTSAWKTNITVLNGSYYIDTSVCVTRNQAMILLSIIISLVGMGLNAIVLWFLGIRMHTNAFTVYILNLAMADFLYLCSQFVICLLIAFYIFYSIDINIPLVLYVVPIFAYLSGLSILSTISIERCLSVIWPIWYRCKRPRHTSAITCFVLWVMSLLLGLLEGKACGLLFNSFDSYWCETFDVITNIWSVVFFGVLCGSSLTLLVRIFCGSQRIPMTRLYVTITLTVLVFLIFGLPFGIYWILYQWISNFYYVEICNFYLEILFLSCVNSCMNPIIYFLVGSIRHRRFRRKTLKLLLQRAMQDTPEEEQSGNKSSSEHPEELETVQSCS
Experimental: (§1) Cell culture reagents were purchased from Thermo Fisher Scientific unless otherwise stated. The LAD2 human mast cell line was in-licensed from National Institutes of Health (NIH) and routinely cultured in StemPro™-34 SFM with nutrient supplement, 1× GlutaMax™, and recombinant human SCF (100 ng/mL). HEK293-MRGPRX2/Gα15 cells were cultured in DMEM containing 10% FBS. The parental U2OS cells were culture in DMEM/F-12 containing 10% FBS. BacMam virus containing human MRGPRX2 gene or animal orthologs [mouse Mrgprb2 (Gene ID: 243979), rat Mrgprb3 (Gene ID: 691194), dog MRGPRX2 (Gene ID: 102125889), cynomolgus monkey MRGPRX2 (Gene ID: 692078), and rhesus monkey MRGPRX2] were used to transduce U2OS cells for transient expression.
(§2) Supplemental Table 1: Compound A and Compound B are human MRGPRX2 selective antagonists. Antagonist and agonist activities of the two compounds were determined in calcium mobilization assays for human MRGPRX2 and its animal orthologs from various species. The activities were measured in […] (Molecular Devices) instrument using U2OS cells transduced with BacMam virus for transient expression of the relevant receptors. Data are presented as mean ± SEM when applicable.
(§3) Compound A and Compound B up to the highest concentration (100 µM) tested. In the antagonist […]
(§4) Compound A and B, respectively. […]
(§5) Taking together, […]

[3] = tested on: dog MRGPRX2 (beagle & boxer); assay: as above
Experimental: as §1, §2, §3, §4, §5

5-HT2C receptor (HTR2C) = biological target: T4, 5-HT2C receptor (HTR2C) (Homo sapiens, UniProt P28335); assay: GPCR selectivity cellular assay; details: for EC50: Agonism, read-out: Agonist Activity (EC50); for IC50: Antagonism, read-out: Antagonist Activity (IC50)
T4 sequence (P28335 33-458): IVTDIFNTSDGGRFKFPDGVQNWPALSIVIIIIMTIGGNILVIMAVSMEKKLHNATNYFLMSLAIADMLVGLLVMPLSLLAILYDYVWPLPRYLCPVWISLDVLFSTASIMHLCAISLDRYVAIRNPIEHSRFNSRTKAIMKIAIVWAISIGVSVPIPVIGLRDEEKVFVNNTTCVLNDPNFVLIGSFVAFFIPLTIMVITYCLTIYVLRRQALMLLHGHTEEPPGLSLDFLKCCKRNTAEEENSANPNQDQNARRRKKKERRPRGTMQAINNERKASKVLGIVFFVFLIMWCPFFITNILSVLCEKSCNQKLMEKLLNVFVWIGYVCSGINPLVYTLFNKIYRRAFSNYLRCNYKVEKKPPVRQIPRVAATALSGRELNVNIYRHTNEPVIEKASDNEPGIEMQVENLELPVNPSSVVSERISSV
Experimental: (§6) tagonists, with little activity detected on other GPCRs. Antagonist and/or agonist activities of the two compounds were determined in cellular assays for 20 human G-protein coupled receptors (GPCR) beside MRGPRX2. Recombinant over-expression systems in mammalian cells were used for all assays listed in this table. […]
(§7) reported as ‘>’ the highest compound concentration allowed in that assay.
(§8) GPCR Target Name Gene symbol Mode of Activity Compound-A Compound-B […]
(§9) Agonist Activity (EC50 ) or Antagonist Activity (IC50 ), nM […]

M2 receptor (CHRM2) = biological target: T5, M2 receptor (CHRM2) (Homo sapiens, UniProt P08172); assay: GPCR selectivity cellular assay; details: for EC50: Agonism, read-out: Agonist Activity (EC50); for IC50: Antagonism, read-out: Antagonist Activity (IC50)
T5 construct: expressed in transfected cells
T5 sequence (P08172 1-466): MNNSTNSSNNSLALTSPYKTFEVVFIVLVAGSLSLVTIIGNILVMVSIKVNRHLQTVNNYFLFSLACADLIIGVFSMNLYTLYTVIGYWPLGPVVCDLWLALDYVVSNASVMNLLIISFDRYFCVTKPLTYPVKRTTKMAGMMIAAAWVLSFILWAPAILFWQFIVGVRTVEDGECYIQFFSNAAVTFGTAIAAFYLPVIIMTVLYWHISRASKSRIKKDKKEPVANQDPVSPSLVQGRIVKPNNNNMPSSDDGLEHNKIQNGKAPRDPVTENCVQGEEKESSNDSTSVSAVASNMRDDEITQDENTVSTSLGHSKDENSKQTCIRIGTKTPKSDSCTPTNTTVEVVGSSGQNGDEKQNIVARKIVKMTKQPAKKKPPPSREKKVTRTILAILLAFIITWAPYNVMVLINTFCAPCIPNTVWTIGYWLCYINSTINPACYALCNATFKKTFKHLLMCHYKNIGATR
Experimental: as §6, §7, §8, §9

H1 receptor (HRH1) = biological target: T6, H1 receptor (HRH1) (Homo sapiens, UniProt P35367); assay: GPCR selectivity cellular assay; details: Antagonism; read-out: Antagonist Activity (IC50)
T6 construct: expressed in transfected cells
T6 sequence (P35367 whole entry): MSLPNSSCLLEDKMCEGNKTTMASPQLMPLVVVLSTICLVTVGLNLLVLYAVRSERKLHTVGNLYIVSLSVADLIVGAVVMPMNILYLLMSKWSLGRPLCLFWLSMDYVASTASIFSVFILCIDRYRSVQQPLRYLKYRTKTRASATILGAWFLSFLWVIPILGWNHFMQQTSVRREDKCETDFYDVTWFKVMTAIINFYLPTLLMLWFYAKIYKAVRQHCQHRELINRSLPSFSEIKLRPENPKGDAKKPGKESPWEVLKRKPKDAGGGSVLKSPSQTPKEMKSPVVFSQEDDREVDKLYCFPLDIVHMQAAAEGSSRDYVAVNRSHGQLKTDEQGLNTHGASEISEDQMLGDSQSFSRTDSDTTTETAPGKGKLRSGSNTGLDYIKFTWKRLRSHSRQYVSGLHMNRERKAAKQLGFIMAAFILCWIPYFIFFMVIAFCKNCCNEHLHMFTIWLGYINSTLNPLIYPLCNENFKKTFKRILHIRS
Experimental: as §6, §7, §8, §9

## CC1(C)C(C(=O)Nc2ccccn2)C1(C)C [Compound A]
MRGPRX2 [1]
  IC50: 0.05 µM
  EC50: > 30 µM
A2A receptor (ADORA2A)
  EC50: > 100 µM
MRGPRX2 [2]
  Concentration achieving complete blockade of Substance P response (histamine release): 3 µM
Mouse MrgB2
  Agonist and antagonist activity: No agonist nor antagonist activity
[3]
  Agonist and antagonist activity: No agonist nor antagonist activity
5-HT2C receptor (HTR2C)
  EC50: > 100 µM
  IC50: > 100 µM
M2 receptor (CHRM2)
  EC50: > 50 µM
  IC50: > 50 µM
H1 receptor (HRH1)
  IC50: > 25 µM

## C[C@@H](C(=O)Nc1cnc(Oc2ccc(F)cc2F)cn1)N1CCC(F)(F)[C@@H](c2cc[n+]([O-])cc2)C1 [Compound B]
MRGPRX2 [1]; Cortistatin 14 at approx. EC80, mean ± SEM of 66 (Compound A) or 22 (Compound B) experiments, read-out: Inhibition of Cort-14 Mediated MRGPRX2 Activation IC50
  IC50: 0.0029 µM
MRGPRX2 [1]
  EC50: > 30 µM
A2A receptor (ADORA2A)
  EC50: > 100 µM
MRGPRX2 [2]
  Concentration achieving complete blockade of Substance P response (histamine release): 0.03 µM
Mouse MrgB2
  Agonist and antagonist activity: No agonist nor antagonist activity
[3]
  Agonist and antagonist activity: No agonist nor antagonist activity
5-HT2C receptor (HTR2C)
  EC50: > 100 µM
  IC50: > 50 µM
M2 receptor (CHRM2)
  EC50: > 50 µM
  IC50: > 50 µM
H1 receptor (HRH1)
  IC50: > 25 µM
